Source: US8906904B2, “Alkoxy pyrazoles as soluble guanylate cyclase activators” (Boehringer Ingelheim International GmbH, priority 2012, dated 2014)
Values after ≈ are worked out from the molar mass of the structure shown.

Columns and labels:
[1] = biological target: T1, human soluble guanylate cyclase alpha 1 and beta 1 subunits (sGC) (Homo sapiens, UniProt Q02108+Q02153); assay: sGC cellular activator assay (cGMP, HTRF); assay type: cell-based; conditions: CHO cells stably expressing human sGC alpha 1/beta 1, preincubated with 40 microM ODQ; cGMP readout; assay run with and without 50% human serum, Table 2 does not say which
T1 construct: expressed in transfected cells; host or cells: Chinese hamster ovary (CHO) cells, stably transfected
T1 sequence (Q02108 1-690): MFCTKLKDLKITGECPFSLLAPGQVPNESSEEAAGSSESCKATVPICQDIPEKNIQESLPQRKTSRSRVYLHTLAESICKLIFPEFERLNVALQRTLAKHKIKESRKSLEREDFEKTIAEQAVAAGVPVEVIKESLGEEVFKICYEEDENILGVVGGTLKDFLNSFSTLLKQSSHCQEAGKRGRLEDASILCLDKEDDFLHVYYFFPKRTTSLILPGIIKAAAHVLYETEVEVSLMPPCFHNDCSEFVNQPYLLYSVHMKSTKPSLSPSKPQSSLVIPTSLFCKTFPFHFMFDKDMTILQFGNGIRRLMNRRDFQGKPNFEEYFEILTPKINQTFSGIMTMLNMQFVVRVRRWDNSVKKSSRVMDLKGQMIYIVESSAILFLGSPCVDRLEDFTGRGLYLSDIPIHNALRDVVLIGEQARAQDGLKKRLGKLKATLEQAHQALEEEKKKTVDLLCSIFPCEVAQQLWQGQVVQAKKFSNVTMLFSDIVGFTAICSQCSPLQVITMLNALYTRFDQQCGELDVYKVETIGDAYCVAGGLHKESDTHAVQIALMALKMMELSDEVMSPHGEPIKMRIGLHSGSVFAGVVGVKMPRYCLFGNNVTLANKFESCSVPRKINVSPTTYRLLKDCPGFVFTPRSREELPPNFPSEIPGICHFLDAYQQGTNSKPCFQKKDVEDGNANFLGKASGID
T1 sequence (Q02153 1-619): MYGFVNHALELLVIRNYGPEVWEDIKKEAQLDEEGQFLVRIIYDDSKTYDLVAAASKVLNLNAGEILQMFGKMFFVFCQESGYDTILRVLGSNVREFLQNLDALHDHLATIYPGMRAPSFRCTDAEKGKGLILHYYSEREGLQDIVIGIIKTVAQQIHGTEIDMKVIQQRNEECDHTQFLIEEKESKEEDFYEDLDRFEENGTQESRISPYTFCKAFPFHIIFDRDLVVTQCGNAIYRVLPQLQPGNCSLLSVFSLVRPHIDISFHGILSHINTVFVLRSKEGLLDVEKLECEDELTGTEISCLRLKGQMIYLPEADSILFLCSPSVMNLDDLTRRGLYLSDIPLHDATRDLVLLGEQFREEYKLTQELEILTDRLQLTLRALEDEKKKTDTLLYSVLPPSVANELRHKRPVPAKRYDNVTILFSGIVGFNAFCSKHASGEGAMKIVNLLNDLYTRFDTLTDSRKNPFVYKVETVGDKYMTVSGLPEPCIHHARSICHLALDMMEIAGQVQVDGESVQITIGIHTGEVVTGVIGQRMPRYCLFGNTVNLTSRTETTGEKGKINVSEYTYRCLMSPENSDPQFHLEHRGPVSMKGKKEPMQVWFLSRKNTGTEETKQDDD
In short: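 First, CHO-sGC (human α1β1) cells get 1 h ODQ at 40 microM with IBMX and 0.1% BSA. Finally, cGMP is quantified by HTRF and EC50 computed.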

[2] = Assessment of solubility (McIlvaine buffers, 24 h shake, UPLC-UV); assay type: physicochemical; conditions: kinetic from dmso stock
In short: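 Compounds from 10 mM DMSO stocks were shaken for 24 h at room temperature in McIlvaine buffers at pH 2.2, 4.5 and 6.8 (2.5% v/v DMSO final), then filtered. Filtrates were quantified by UPLC-UV at 254 nm against a 50:50 acetonitrile/water reference assumed fully dissolved, as a single determination.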

Row | EC50 [1] [nM] | solubility at 24 h ([2]; pH 2.2, aqueous buffer) [µg/mL] | solubility at 24 h ([2]; pH 4.5, aqueous buffer) [µg/mL] | solubility at 24 h ([2]; pH 6.8, aqueous buffer) [µg/mL] | SMILES
1 | 17 | 95 (≈ 163 µM) | 79 (≈ 136 µM) | 79 (≈ 136 µM) | CCOc1c(C(=O)O)cnn1-c1cccc(-c2cccc(C)c2OCc2ccc3c(c2C)CCN([C@H]2CCCOC2)C3)n1 [Compound 129]
2 | 89 | 110 (≈ 184 µM) | 98 (≈ 164 µM) | 110 (≈ 184 µM) | CC[C@H](C)Oc1c(C(=O)O)cnn1-c1cccc(-c2cccc(C)c2OCc2ccc3c(c2C)CCN(C2CCOC2)C3)n1 (some centres unmarked) [Compound 137]
3 | 91 | 100 (≈ 167 µM) | 67 (≈ 112 µM) | 78 (≈ 130 µM) | COCCOc1c(C(=O)O)cnn1-c1cccc(-c2cccc(C)c2OCc2ccc3c(c2C)CCN(C2CCOC2)C3)n1 (centres unmarked) [Compound 150]
4 | 81 | 120 (≈ 196 µM) | 100 (≈ 164 µM) | 110 (≈ 180 µM) | CC[C@H](C)Oc1c(C(=O)O)cnn1-c1cccc(-c2cccc(C)c2OCc2ccc3c(c2C)CCN(C2CCOCC2)C3)n1 [Compound 136]
5 | 40 | 110 (≈ 193 µM) | 90 (≈ 158 µM) | 93 (≈ 164 µM) | COc1c(C(=O)O)cnn1-c1cccc(-c2cccc(C)c2OCc2cc3c(cc2C)CN(C2CCOCC2)CC3)n1 [Compound 121]
6 | 30 | 2.1 (≈ 3.6 µM) | 5.9 (≈ 10.1 µM) | 83 (≈ 142 µM) | COc1c(C(=O)O)cnn1-c1cccc(-c2cccc(C)c2OCc2ccc3c(c2C)CCN(C2CCOCC2)C3=O)n1 [Compound 167, 5-Methoxy-1-(6-{3-methyl-2-[5-methyl-1-oxo-2-(tetrahydro-pyran-4-yl)-1,2,3,4-tetrahydro-isoquinolin-6-ylmethoxy]-phenyl}-pyridin-2-yl)-1H-pyrazole-4-carboxylic acid]
7 | 54 | 110 (≈ 180 µM) | 97 (≈ 159 µM) | 100 (≈ 164 µM) | CC[C@H](C)Oc1c(C(=O)O)cnn1-c1cccc(-c2cccc(C)c2OCc2ccc3c(c2C)CCN(C2CCCOC2)C3)n1 (some centres unmarked) [Compound 135]

The remaining lines, values behind:

Row | SMILES | EC50 [1] [nM] | solubility at 24 h ([2]; pH 2.2, aqueous buffer) [µg/mL] | solubility at 24 h ([2]; pH 4.5, aqueous buffer) [µg/mL] | solubility at 24 h ([2]; pH 6.8, aqueous buffer) [µg/mL]
8 | COc1c(C(=O)O)cnn1-c1cccc(-c2cccc(C)c2OCc2ccc3c(c2)C(C)(C)CN(C2COC2)C3)n1 [Compound 10] | 16 | 94 (≈ 169 µM) | 50 (≈ 90.1 µM) | 73 (≈ 132 µM)
9 | Cc1cccc(-c2cccc(-n3ncc(C(=O)O)c3OC(C)C)n2)c1OCc1ccc2c(c1)CCN([C@H]1CCOC1)C2 [Compound 111] | 99 | 87 (≈ 153 µM) | 69 (≈ 121 µM) | 75 (≈ 132 µM)
10 | CCOc1c(C(=O)O)cnn1-c1cccc(-c2cccc(C)c2OCc2ccc3c(c2)CCN([C@H]2CCOC2)C3)n1 [Compound 110] | 45 | 130 (≈ 234 µM) | 96 (≈ 173 µM) | 120 (≈ 216 µM)
11 | COc1c(C(=O)O)cnn1-c1cccc(-c2cccc(C)c2OCc2ccc3c(c2)CCN([C@H]2CC[C@]4(CCCO4)CC2)C3)n1 [Compound 102] | 110 | 99 (≈ 163 µM) | 81 (≈ 133 µM) | 82 (≈ 135 µM)
12 | COc1c(C(=O)O)cnn1-c1cccc(-c2cccc(C)c2OCc2ccc3c(c2C)CCN([C@H]2CCOC2)C3)n1 [Compound 105] | 17 | 93 (≈ 168 µM) | 72 (≈ 130 µM) | 75 (≈ 135 µM)
13 | CCOc1c(C(=O)O)cnn1-c1cccc(-c2cccc(C)c2OCc2ccc3c(c2C)CN(C2CCOCC2)C3)n1 [Compound 119] | 57 | 110 (≈ 193 µM) | 89 (≈ 157 µM) | 97 (≈ 171 µM)
14 | COc1c(C(=O)O)cnn1-c1cccc(-c2ccc(C)cc2OCc2ccc3c(c2)CCN(C2CCOCC2)C3)n1 [Compound 98] | 270 | 150 (≈ 270 µM) | 110 (≈ 198 µM) | 99 (≈ 178 µM)
